Results published in the NIST ThermoML archive (doi:10.1016/j.jct.2016.03.026).

Assay: xn = mol fraction of the nth substance listed
Details: 313.15 K, Fluid (supercritical or subcritical phases), Vibrating tube method, x1 = 0.97

O=C=O [carbon dioxide] + CO
Details | mass density [kg/m3]
11150 kPa | 721.68
11175 kPa | 722.44
11200 kPa | 723.12
11225 kPa | 723.83
11250 kPa | 724.5
11275 kPa | 725.17
11300 kPa | 725.87
11325 kPa | 726.55
11350 kPa | 727.24
11375 kPa | 727.87
11400 kPa | 728.58
11425 kPa | 729.26
11450 kPa | 729.89
11475 kPa | 730.56
11500 kPa | 731.23
11525 kPa | 731.88
11550 kPa | 732.54
11575 kPa | 733.12
11600 kPa | 733.75
11625 kPa | 734.36
11650 kPa | 734.97
11675 kPa | 735.62
11700 kPa | 736.24
11725 kPa | 736.79
11750 kPa | 737.41
11775 kPa | 738.01
11800 kPa | 738.59
11825 kPa | 739.2
11850 kPa | 739.81
11875 kPa | 740.42
11900 kPa | 741.01
11925 kPa | 741.62
11950 kPa | 742.23
11975 kPa | 742.81
12000 kPa | 743.38
12025 kPa | 743.98
12050 kPa | 744.51
12075 kPa | 745.12
12100 kPa | 745.65
12125 kPa | 746.23
12150 kPa | 746.78
12175 kPa | 747.4
12200 kPa | 747.95
12225 kPa | 748.48
12250 kPa | 749.04
12275 kPa | 749.5
12300 kPa | 750.05
12325 kPa | 750.56
12350 kPa | 751.14
12375 kPa | 751.63
12400 kPa | 752.14
12425 kPa | 752.63
12450 kPa | 753.18
12475 kPa | 753.64
12500 kPa | 754.12
12525 kPa | 754.59
12550 kPa | 755.09
12575 kPa | 755.53
12600 kPa | 756
12625 kPa | 756.47
12650 kPa | 756.92
12675 kPa | 757.39
12700 kPa | 757.86
12725 kPa | 758.3
12750 kPa | 758.68
12775 kPa | 759.12
12800 kPa | 759.54
12825 kPa | 759.98
12850 kPa | 760.36
12875 kPa | 760.82
12900 kPa | 761.3
12925 kPa | 761.76
12950 kPa | 762.23
12975 kPa | 762.72
13000 kPa | 763.15
13025 kPa | 763.58
13050 kPa | 764.07
13075 kPa | 764.54
13100 kPa | 764.93
13125 kPa | 765.37
13150 kPa | 765.86
13175 kPa | 766.29
13200 kPa | 766.75
13225 kPa | 767.22
13250 kPa | 767.6
13275 kPa | 768.04
13300 kPa | 768.47
13325 kPa | 768.93
13350 kPa | 769.37
13375 kPa | 769.83
13400 kPa | 770.23
13425 kPa | 770.69
13450 kPa | 771.07
13475 kPa | 771.5
13500 kPa | 771.93
13525 kPa | 772.34
13550 kPa | 772.7
13575 kPa | 773.15
13600 kPa | 773.57
13625 kPa | 773.92
13650 kPa | 774.36
13675 kPa | 774.79
13700 kPa | 775.16
13725 kPa | 775.57
13750 kPa | 776
13775 kPa | 776.36
13800 kPa | 776.72
13825 kPa | 777.12
13850 kPa | 777.52
13875 kPa | 777.93
13900 kPa | 778.33
13925 kPa | 778.72
13950 kPa | 779.11
13975 kPa | 779.47
14000 kPa | 779.85
14025 kPa | 780.28
14050 kPa | 780.67
14075 kPa | 781.06
14100 kPa | 781.44
14125 kPa | 781.8
14150 kPa | 782.18
14175 kPa | 782.55
14200 kPa | 782.93
14225 kPa | 783.28
14250 kPa | 783.65
14275 kPa | 784.01
14300 kPa | 784.39
14325 kPa | 784.77
14350 kPa | 785.15
14375 kPa | 785.52
14400 kPa | 785.88
14425 kPa | 786.27
14450 kPa | 786.66
14475 kPa | 787.01
14500 kPa | 787.34
14525 kPa | 787.73
14550 kPa | 788.05
14575 kPa | 788.43
14600 kPa | 788.78
14625 kPa | 789.1
14650 kPa | 789.51
14675 kPa | 789.86
14700 kPa | 790.23
14725 kPa | 790.55
14750 kPa | 790.91
14775 kPa | 791.25
14800 kPa | 791.65
14825 kPa | 791.96
14850 kPa | 792.31
14875 kPa | 792.64
14900 kPa | 793.03
14925 kPa | 793.37
14950 kPa | 793.74
14975 kPa | 794.09
15000 kPa | 794.4
15025 kPa | 794.78
15050 kPa | 795.16
15075 kPa | 795.5
15100 kPa | 795.8
15125 kPa | 796.2
15150 kPa | 796.56
15175 kPa | 796.89
15200 kPa | 797.19
15225 kPa | 797.52
15250 kPa | 797.89
15275 kPa | 798.26
15300 kPa | 798.53
15325 kPa | 798.91
15350 kPa | 799.22
15375 kPa | 799.54
15400 kPa | 799.88
15425 kPa | 800.19
15450 kPa | 800.53
15475 kPa | 800.87
15500 kPa | 801.17
15525 kPa | 801.53
15550 kPa | 801.84
15575 kPa | 802.17
15600 kPa | 802.47
15625 kPa | 802.79
15650 kPa | 803.12
15675 kPa | 803.42
15700 kPa | 803.73
15725 kPa | 804.02
15750 kPa | 804.34
15775 kPa | 804.65
15800 kPa | 804.99
15825 kPa | 805.27
15850 kPa | 805.58
15875 kPa | 805.91
15900 kPa | 806.23
15925 kPa | 806.51
15950 kPa | 806.83
15975 kPa | 807.09
16000 kPa | 807.41
16025 kPa | 807.71
16050 kPa | 807.98
16075 kPa | 808.29
16100 kPa | 808.61
16125 kPa | 808.91
16150 kPa | 809.2
16175 kPa | 809.5
16200 kPa | 809.79
16225 kPa | 810.09
16250 kPa | 810.39
16275 kPa | 810.69
16300 kPa | 810.98
16325 kPa | 811.27
16350 kPa | 811.55
16375 kPa | 811.82
16400 kPa | 812.11
16425 kPa | 812.38
16450 kPa | 812.66
16475 kPa | 812.9
16500 kPa | 813.24
16525 kPa | 813.5
16550 kPa | 813.76
16575 kPa | 814.03
16600 kPa | 814.33
16625 kPa | 814.6
16650 kPa | 814.87
16675 kPa | 815.12
16700 kPa | 815.43
16725 kPa | 815.67
16750 kPa | 815.94
16775 kPa | 816.22
16800 kPa | 816.46
16825 kPa | 816.74
16850 kPa | 817
16875 kPa | 817.27
16900 kPa | 817.54
16925 kPa | 817.8
16950 kPa | 818.05
16975 kPa | 818.28
17000 kPa | 818.55
17025 kPa | 818.81
17050 kPa | 819.06
17075 kPa | 819.27
17100 kPa | 819.55
17125 kPa | 819.79
17150 kPa | 820.09
17175 kPa | 820.32
17200 kPa | 820.54
17225 kPa | 820.77
